# Measured values published in US20170044150A1, “IDENTIFICATION OF COMPOUNDS WHICH INHIBIT ATG8-ATG3 PROTEIN-PROTEIN INTERACTION AND THEIR USE AS ANTIPARASITICAL AGENTS” (THE JOHNS HOPKINS UNIVERSITY, priority 2014, published 2017).
# Read-outs that look alike come from different tables or passages of the source.
# Columns and labels:
# [1] = system: PfAtg8-PfAtg3 interaction; experiment: SPR protein-protein interaction assay, PfAtg8-PfAtg3 (VLS compounds); format: binding, P. falciparum; conditions: 500 μM
# Procedure: Surface Plasmon Resonance (SPR) protein-protein interaction assay. All measurements were carried out on a BiaCore 3000 instrument. We used the previously described SPR competition assay to test inhibition of the PfAtg8-PfAtg3 and hLC3-hAtg3 interaction. The standard running buffer was 10 mM HEPES, 150 mM NaCl, 0.01% Tween 20, adjusted to pH 7.5. Prior to performing SPR assays, all solutions were sterile filtered and degassed for 1 h at room temperature. For small molecule inhibitor studies, the same running buffer was supplemented with 1% DMSO. All dose dependency measurements were carried out in triplicate and corrected for DMSO absorption effects using double referencing with interspersed blank injections and an untreated flow cell on the SPR chip and the SPR analysis software Scrubber 2.0 (BioLogics). For each interaction pair, a new CM5 SPR chip was used. To exclude surface decay during the experiment, positive control injections were interspersed every 12th injection. For all interaction studies, the Atg3 homologue was immobilized and the corresponding Atg8 partner was passed as an analyte over the chip in either the presence or absence of small molecule inhibitors, dissolved to 100 mM in 100% DMSO and tested at 500 μM final concentration. Prior to the immobilization of Atg3 to an SPR chip, a pH scouting from pH 6.0 to pH 4.0 in intervals of 0.5 pH units was carried out to determine the best pre-concentration conditions for immobilization. Briefly, flow cells of an SPR chip were activated using N-hydroxysuccinimide (NHS) and 1-ethyl-3-(3-dimethylaminopropyl)carbodiimide (EDC) for 7 min with a flow rate of 20 μl/min. For PfAtg3 immobilization, a solution of 50 μg/ml of PfAtg3 in 10 mM sodium acetate pH 5.0 was passed over one flow cell until >500 Response Units (RU) were captured. The same procedure was followed for the immobilization of hAtg3. Activated free binding sites on the chip were blocked using 1 M ethanolamine for an additional 7 min. All experiments were carried out at 25° C. with a 40 μl/min flow rate and 75 s contact time, followed by a 1 min dissociation time and a 25 μl regeneration injection of 2 M MgCl2.
# The dose-response curves were used to determine the approximate concentration of analyte (PfAtg8 or hLC3) needed to obtain a particular response unit (RU), typically in the range of 100-150 RU's. A fixed amount of analyte was then passed over the chip resulting in at least 100-150 response units (RU) in the absence of small molecules.
# [2] = target: PfAtg8-PfAtg3 interaction (Plasmodium falciparum, UniProt Q8IJK2); format: binding, P. falciparum
# Chain of PfAtg8-PfAtg3 interaction (Plasmodium falciparum, UniProt Q8IJK2) (Q8IJK2 whole entry C32I/C119S/C122S, form open): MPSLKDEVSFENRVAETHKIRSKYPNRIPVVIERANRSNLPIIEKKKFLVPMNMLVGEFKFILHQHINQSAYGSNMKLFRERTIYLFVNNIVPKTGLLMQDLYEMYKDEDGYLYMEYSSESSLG
# [3] = system: P. falciparum 3D7 blood stages; conditions: asterisk / PubChem reported values; read-out: IC50 Blood stage, derived from the literature; cited from earlier work
# P. falciparum 3D7 = experiment: SYBR Green I growth inhibition assay, blood stage; format: cell-based; conditions: Plasmodium falciparum
# Procedure: P. falciparum blood stage culturing. P. falciparum 3D7 and FCR3 cultures were maintained using modified, previously published methods at 37° C., 2% hematocrit of human red blood cells (Science 1976, 193, 673-675). Complete culture media consisted of sterile RPMI 1640 media (Life Technologies), supplemented with 10% human serum, 0.005% hypoxanthine, and buffered with final concentrations of 0.6% HEPES and 0.26% NaHCO3. The FCR3 strain was maintained at 3% CO2 and 5% O2, 92% N2 atmosphere, while the 3D7 strain was maintained at 5% CO2, 5% O2, 90% N2 atmosphere.
# SYBR Green I growth inhibition assay. 10 μL of 10× compound diluted in RPMI 1640 media (Gibco) with a constant concentration of 1% DMSO was added to a 96 well plate (Costar), 90 μL of 1.5% ring stage, synchronized with 5% w/v sorbitol P. falciparum 3D7 parasites, 1% hematocrit, in culture media with 10% v/v human serum with 10 μg/mL gentamycin. Each compound concentration and 1% v/v DMSO controls were run in triplicate. Plates were incubated at 37° C. in 5% O2, 5% CO2 and 90% N2 for 72 hours. Plates were frozen, thawed, and incubated with 100-μL 2× SYBR green in lysis buffer (20 mM Tris pH 7.5, 5 mM EDTA, 0.008% Saponin, 0.08% TritonX-100) in the dark for at least one hour. Fluorescence was measured with a plate reader (HTS 7000, Perkin Elmer) at excitation/emission wavelengths of 485/535 nm.
# Plasmodium parasite growth inhibition assay. P. falciparum 3D7 parasites were cultured as previously described (J Med Chem 57:4521-4531(2014)). Briefly, the parasites were cultured in 10% v/v human serum with 10 μg/mL gentamycin and synchronized with 5% w/v sorbitol. 1.5% ring stage parasites were added to 96 well plates (Costar) containing serial dilutions, performed in triplicate, of compound in RPMI 1640 media (Gibco). Plates were incubated at 37° C. in 5% O2, 5% CO2, and 90% N2 for 72 h. Plates were frozen, thawed, and incubated with 100 μL 2× SYBR green in lysis buffer (20 mM Tris pH 7.5, 5 mM EDTA, 0.008% Saponin, 0.08% TritonX-100) in the dark for 1 h. Fluorescence was measured with a plate reader (HTS 7000, PerkinElmer) at excitation/emission wavelengths of 485/535 nm.
# [4] = inhibition of PfAtg8-PfAtg3 interaction
compound,measurement,setting,value
"CCc1c(C(=O)NCc2csc(-c3cnccn3)n2)[nH]c2ccccc12 [Compound C19, 3-ethyl-N-([2-(pyrazin-2-yl)-1,3-thiazol-4-yl]methyl)-1H-indole-2-carboxamide]",precipitation at the concentration used in the assay,[1],either precipitated or caused protein precipitation
"O=C(NCc1ccco1)C1CCN(S(=O)(=O)c2ccc(Br)cc2)CC1 [Compound C13, 1-(4-bromobenzene-sulfonyl)-N-(furan-2-ylmethyl)piperidine-4-carboxamide]",precipitation at the concentration used in the assay,[1],either precipitated or caused protein precipitation
"CSc1ccccc1C(=O)Nc1nc(-c2ccccn2)cs1 [Compound 2, 2-methylsulfanyl-N-(4-pyridin-2-yl-1,3-thiazol-2-yl)benzamide]",LEAN (SPR),[2]; -log (IC50)/number of heavy atoms,0.22
same,IC50,"[2]; read-out: IC50 SPR, inhibition of PfAtg8-PfAtg3 interaction",15000 nM
same,IC50,[3],200 nM
"CCN(CC)CCCC(C)Nc1ccnc2cc(Cl)ccc12 (stereo not shown) [chloroquine, reference compound]",IC50,P. falciparum 3D7; 3D7,3 ± 2 nM
"COC(OC)c1ccc(C(=O)Nc2nc(-c3ccccn3)cs2)cc1 [Compound 9, 4-(Dimethoxymethyl)-N-[4-(pyridin-2-yl)-1,3-thiazol-2-yl]benzamide]",IC50,"P. falciparum 3D7; 3D7, two to three experiments, read-out: average IC50",1480 ± 600 nM
"Brc1ccc(Nc2nc3ccccc3nc2Nc2ccc(Br)cc2)cc1 [Compound 6, 2-N,3-N-bis(4-bromophenyl)quinoxaline-2,3-diamine]",IC50 SPR,[2]; [4],None
"Cc1ccc(-c2cc3c(SCC(=O)Nc4cc(C(F)(F)F)ccc4Cl)nccn3n2)cc1 [Compound 4, N-[2-chloro-5-(trifluoromethyl)phenyl]-2-[2-(4-methylphenyl)pyrazolo[1,5-a]pyrazin-4-yl]sulfanylacetamide]",IC50 SPR,[2]; [4],None
"O=C(Nc1nc(-c2ccccn2)cs1)c1ccccc1Br [Compound 3, 2-bromo-N-(4-pyridin-2-yl-1,3-thiazol-2-yl)benzamide]",IC50,[3],1580 nM
O=C(NCC1Cc2cccc(-c3ccncc3)c2O1)c1csc2c1CCCC2 (stereo not shown) [Compound C11],precipitation at the concentration used in the assay,[1],either precipitated or caused protein precipitation
"CN(C)c1ccc(N2C(N)=NC(N)=NC2(C)C)cc1 [Compound 5, 1-[4-(dimethylamino)phenyl]-6,6-dimethyl-1,3,5-triazine-2,4-diamine]",IC50 SPR,[2]; [4],None
"O=C(NCc1csc(-c2cnccn2)n1)c1cc2sccc2[nH]1 [Compound C30, N-([3-(pyrazin-3-yl)-1,3-thiazol-4-yl]methyl)-4H-thieno[3,2-b]pyrrole-5-carboxamide]",precipitation at the concentration used in the assay,[1],either precipitated or caused protein precipitation
